Results: ChEMBL document CHEMBL5352466, “New bioisosteric sulphur-containing choline kinase inhibitors with a tracked mode of action” (Eur J Med Chem, 2023)
pIC50: −log10 of the molar value. Activity calls are given as the source filed them. No cut-off for these calls is given here.

Columns and labels:
HeLa [1] = test: Induction of apoptosis in human HeLa cells assessed as reduction in MCL-1 expression at 5 uM measured for 48 hrs by Western blotting analysis; type: functional, cell-based
HT-29 = test: Antiproliferative activity against human HT-29 cells assessed as inhibition of cell growth incubated for 72 hrs; type: functional
HeLa [2] = test: Induction of mitochondrial membrane potential depolarization in human HeLa cells at 1 to 5 uM incubated for 24 hrs by JC-1 staining based flow cytometry; type: functional, cell-based; settings: dose 1-5 µM
HeLa [3] = test: Induction of apoptosis in human HeLa cells measured for 48 to 72 hrs by Annexin V/propidium iodide staining based flow cytometry analysis; type: functional, cell-based; settings: dose 1-5 µM, time 48-72 hrs
Choline kinase alpha = Choline kinase alpha (Homo sapiens, UniProt P35790); test: Inhibition of human Choline kinase alpha 1 incubated for 10 mins by liquid-scintillation counter analysis; settings: for pIC50: read-out: IC50
Choline kinase alpha, sequence (P35790 whole entry): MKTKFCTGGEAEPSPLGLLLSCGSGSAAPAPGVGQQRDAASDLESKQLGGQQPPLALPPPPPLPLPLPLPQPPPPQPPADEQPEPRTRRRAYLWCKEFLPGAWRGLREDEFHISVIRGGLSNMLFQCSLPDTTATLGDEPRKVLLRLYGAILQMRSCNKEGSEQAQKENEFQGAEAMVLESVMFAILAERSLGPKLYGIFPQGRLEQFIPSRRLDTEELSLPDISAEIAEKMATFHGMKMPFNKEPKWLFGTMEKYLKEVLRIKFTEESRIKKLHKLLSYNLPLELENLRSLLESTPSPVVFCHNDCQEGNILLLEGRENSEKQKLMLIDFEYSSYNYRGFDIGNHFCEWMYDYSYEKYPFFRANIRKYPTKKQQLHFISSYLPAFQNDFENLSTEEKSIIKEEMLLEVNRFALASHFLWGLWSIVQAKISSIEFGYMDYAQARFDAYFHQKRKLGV

A549 [4] = test: Induction of mitochondrial membrane potential depolarization in human A549 cells at 5 uM incubated for 24 hrs by JC-1 staining based flow cytometry; type: functional, cell-based
HeLa [5] = test: Induction of apoptosis in human HeLa cells at 5 uM measured for 72 hrs in presence of Z-VAD-fmk by Annexin V/propidium iodide staining based flow cytometry analysis; type: functional, cell-based
HeLa [6] = test: Induction of cell cycle arrest in human HeLa cells assessed as accumulation of cells at G1 phase at 1 to 5 uM incubated for 24 hrs by PI staining based flow cytometry analysis; type: functional; settings: dose 1-5 µM
[7] = Antiproliferative activity against human Astrocyte cells assessed as inhibition of cell growth incubated for 72 hrs by resazurin dye based assay; type: toxicity
Astrocyte = test: Induction of apoptosis in human Astrocyte cells assessed as reduction in MCL-1 expression at 5 uM measured for 48 hrs by Western blotting analysis; type: functional, cell-based
HeLa [8] = test: Induction of cell cycle arrest in human HeLa cells at 1 to 5 uM incubated for 24 hrs by PI staining based flow cytometry analysis; type: functional; settings: dose 1-5 µM
A549 [9] = test: Induction of cell cycle arrest in human A549 cells at 1 to 5 uM incubated for 24 hrs by PI staining based flow cytometry analysis; type: functional; settings: dose 1-5 µM
MDA-MB-231 = test: Antiproliferative activity against human MDA-MB-231 cells assessed as inhibition of cell growth incubated for 72 hrs; type: functional
HeLa [10] = test: Antiproliferative activity against human HeLa cells assessed as inhibition of cell growth incubated for 72 hrs; type: functional
A549 [11] = test: Induction of apoptosis in human A549 cells at 5 uM measured for 72 hrs in presence of Z-VAD-fmk by Annexin V/propidium iodide staining based flow cytometry analysis; type: functional, cell-based
HeLa [12] = test: Induction of apoptosis in human HeLa cells at 1 to 5 uM measured for 72 hrs by Annexin V/propidium iodide staining based flow cytometry analysis; type: functional, cell-based; settings: dose 1-5 µM
MCF7 = test: Antiproliferative activity against human MCF7 cells assessed as inhibition of cell growth incubated for 72 hrs; type: functional
HeLa [13] = test: Induction of apoptosis in human HeLa cells at 1 to 5 uM by Annexin V/propidium iodide staining based flow cytometry analysis; type: functional, cell-based; settings: dose 1-5 µM, time 48-72 hrs, TDE = time-dependent effect
A549 [14] = test: Antiproliferative activity against human A549 cells assessed as inhibition of cell growth incubated for 72 hrs; type: functional
HeLa [15] = test: Induction of apoptosis in human HeLa cells assessed as increase in cleaved PARP-1 expression at 5 uM measured for 48 hrs by Western blotting analysis; type: functional, cell-based
[16] = Antiproliferative activity against human MCF-10A cells assessed as inhibition of cell growth incubated for 72 hrs by resazurin dye based assay; type: toxicity
Cell membrane = test: Induction of cell membrane disruption in human MCF7 cells at 8 uM measured after 90 mins; type: subcellular
[17] = Drug localization in cytosol of human MCF7 cells assessed as increase in fluorescence intensity at 8 uM by microscopic analysis; type: ADME, subcellular
[18] = Drug localization in cytosol of human MCF7 cells assessed as increase in fluorescence intensity at 8 uM measured after 15 mins by microscopic analysis; type: ADME, subcellular; settings: 0.25 h

| GI50 (HT-29) [nM] | pIC50 (Choline kinase alpha) | GI50 (MDA-MB-231) [nM] | GI50 (HeLa [10]) [nM] | GI50 (MCF7) [nM] | GI50 (A549 [14]) [nM] | Compound | further results |
| --- | --- | --- | --- | --- | --- | --- | --- |
| 2090 | 6.18 | 1460 | 2800 | 1460 | 890 | c1cc2c(N3CCCCCC3)cc[n+](Cc3ccc(SCCSc4ccc(C[n+]5ccc(N6CCCCCC6)c6ccsc65)cc4)cc3)c2s1 | Activity (HeLa [1]): Active; Activity (HeLa [2]): Active; Activity (HeLa [3]): Dose-Dependent Effect; Activity (A549 [4]): Active; Activity (HeLa [5]): Active; Activity (HeLa [6]): Active; GI50 at 72 h [7]: 2500 nM; Activity (Astrocyte): inactive; Activity (HeLa [8]): inactive; Activity (A549 [9]): inactive; Activity (A549 [11]): inactive; Activity (HeLa [12]): Active; Activity (HeLa [13]): Tde; Activity (HeLa [15]): Active |
| > 10000 | 6.24 |  | > 10000 |  | > 10000 | c1cc2c(s1)c(N1CCCC1)nc[n+]2Cc1ccc(SSc2ccc(C[n+]3cnc(N4CCCC4)c4sccc43)cc2)cc1 |  |
| > 10000 | 6.28 |  | > 10000 |  | > 10000 | c1cc2c(N3CCCCC3)nc[n+](Cc3ccc(SSc4ccc(C[n+]5cnc(N6CCCCC6)c6ccsc65)cc4)cc3)c2s1 |  |
| 2410 | 6.19 | 1920 | 4630 | 2120 | 1290 | c1cc2c(s1)c(N1CCCCCC1)cc[n+]2Cc1ccc(SCCSc2ccc(C[n+]3ccc(N4CCCCCC4)c4sccc43)cc2)cc1 | Activity (HeLa [1]): Active; Activity (HeLa [2]): Active; Activity (HeLa [3]): Dose-Dependent Effect; Activity (A549 [4]): Active; GI50 at 72 h [16]: 2500 nM; Activity (HeLa [5]): Active; Activity (HeLa [6]): Active; GI50 at 72 h [7]: 4400 nM; Activity (Astrocyte): inactive; Activity (HeLa [8]): inactive; Activity (A549 [9]): inactive; Activity (A549 [11]): inactive; Activity (HeLa [12]): Active; Activity (HeLa [13]): Tde; Activity (HeLa [15]): Active |
| > 10000 |  |  | > 10000 |  | > 10000 | [Br-].[Br-].c1cc2c(s1)c(N1CCCCCC1)cc[n+]2Cc1ccc(SSc2ccc(C[n+]3ccc(N4CCCCCC4)c4sccc43)cc2)cc1 | IC50 (Choline kinase alpha): Not Determined(Insoluble) |
| > 10000 | 5.84 |  | > 10000 |  | > 10000 | Clc1ccc2c(N3CCCC3)cc[n+](Cc3ccc(SSc4ccc(C[n+]5ccc(N6CCCC6)c6ccc(Cl)cc65)cc4)cc3)c2c1 |  |
| 7480 | 6.00 | 2010 | 9930 | 3110 | 1370 | c1cc2c(s1)c(N1CCCC1)cc[n+]2Cc1ccc(SCCSc2ccc(C[n+]3ccc(N4CCCC4)c4sccc43)cc2)cc1 |  |
| 2630 | 5.87 | 1630 | 10100 | 4340 | 440 | [Br-].[Br-].c1cc2c(s1)c(N1CCCC1)nc[n+]2Cc1ccc(SCCSc2ccc(C[n+]3cnc(N4CCCC4)c4sccc43)cc2)cc1 | Activity (Cell membrane): inactive; Drug uptake [17]: Active; Drug uptake [18]: Active |
| > 10000 | 6.46 |  | 2200 |  | 6160 | c1cc2c(s1)c(N1CCCC1)cc[n+]2Cc1ccc(SSc2ccc(C[n+]3ccc(N4CCCC4)c4sccc43)cc2)cc1 |  |
| > 10000 | 6.49 |  | 1230 |  | 4260 | c1cc2c(N3CCCCCC3)nc[n+](Cc3ccc(SSc4ccc(C[n+]5cnc(N6CCCCCC6)c6ccsc65)cc4)cc3)c2s1 |  |
| 2160 | 5.36 | 1230 | 2990 | 1210 | 920 | c1cc2c(N3CCCCC3)cc[n+](Cc3ccc(SCCSc4ccc(C[n+]5ccc(N6CCCCC6)c6ccsc65)cc4)cc3)c2s1 |  |
| 3000 |  |  | 260 | 1340 | 530 | Clc1ccc2c(N3CCCC3)cc[n+](Cc3ccc(SCCSc4ccc(C[n+]5ccc(N6CCCC6)c6ccc(Cl)cc65)cc4)cc3)c2c1 | Activity (HeLa [1]): Active; Activity (HeLa [2]): Active; Activity (HeLa [3]): Dose-Dependent Effect; Activity (A549 [4]): Active; GI50 at 72 h [16]: 2600 nM; Activity (HeLa [6]): Active; GI50 at 72 h [7]: 5000 nM; Activity (Astrocyte): inactive; Activity (HeLa [8]): inactive; Activity (A549 [9]): inactive; Activity (HeLa [12]): Active; Activity (HeLa [13]): Tde; Activity (HeLa [15]): Active |
| 9060 |  | 1750 | 8840 |  | 1590 | [Br-].[Br-].c1cc(SCCSc2ccc(C[n+]3ccc(N4CCCC4)cc3)cc2)ccc1C[n+]1ccc(N2CCCC2)cc1 | IC50 (Choline kinase alpha): Not Determined(Insoluble) |

The remaining lines, values behind:

| Compound | GI50 (HT-29) [nM] | pIC50 (Choline kinase alpha) | GI50 (MDA-MB-231) [nM] | GI50 (HeLa [10]) [nM] | GI50 (MCF7) [nM] | GI50 (A549 [14]) [nM] | further results |
| --- | --- | --- | --- | --- | --- | --- | --- |
| CN(c1ccccc1)c1cc[n+](Cc2ccc(SCCSc3ccc(C[n+]4ccc(N(C)c5ccccc5)c5ccccc54)cc3)cc2)c2ccccc12 | 5980 | 5.76 | 1970 | 9060 | 4730 | 2020 |  |
| CN(c1ccccc1)c1nc[n+](Cc2ccc(SCCSc3ccc(C[n+]4cnc(N(C)c5ccccc5)c5sccc54)cc3)cc2)c2ccsc12 | > 10000 | 5.59 | 8940 | > 10000 | 9120 | 8200 |  |
| CN(c1ccc(Cl)cc1)c1cc[n+](Cc2ccc(SSc3ccc(C[n+]4ccc(N(C)c5ccc(Cl)cc5)c5ccccc54)cc3)cc2)c2ccccc12 | > 10000 | 6.07 |  | > 10000 |  | > 10000 |  |
| CN(c1ccc(Cl)cc1)c1cc[n+](Cc2ccc(SCCSc3ccc(C[n+]4ccc(N(C)c5ccc(Cl)cc5)c5ccsc54)cc3)cc2)c2sccc12 | 6070 | 6.15 | 2950 | > 10000 | 2370 | 2660 |  |
| c1cc(SSc2ccc(C[n+]3ccc(N4CCCC4)cc3)cc2)ccc1C[n+]1ccc(N2CCCC2)cc1 | > 10000 | 6.44 |  | > 10000 |  | > 10000 |  |
| CN(C)c1cc[n+](Cc2ccc(SCCSc3ccc(C[n+]4ccc(N(C)C)cc4)cc3)cc2)cc1.[Br-].[Br-] | > 10000 |  | 4200 | > 10000 |  | 1380 | IC50 (Choline kinase alpha): Not Determined(Insoluble) |
| CN(c1ccccc1)c1cc[n+](Cc2ccc(SCCSc3ccc(C[n+]4ccc(N(C)c5ccccc5)c5ccsc54)cc3)cc2)c2sccc12 | 6800 | 5.85 | 6680 | 5250 | 3940 | 4050 |  |
| CN(c1ccc(Cl)cc1)c1cc[n+](Cc2ccc(SCCSc3ccc(C[n+]4ccc(N(C)c5ccc(Cl)cc5)c5ccccc54)cc3)cc2)c2ccccc12 | 8900 | 5.99 | 5870 | > 10000 | 3690 | 2900 |  |
| CN(C)c1cc[n+](Cc2ccc(SSc3ccc(C[n+]4ccc(N(C)C)cc4)cc3)cc2)cc1 | > 10000 | 6.19 |  | 440 |  | 2450 |  |
